Assay results published in ChEMBL document CHEMBL5678807, “A selective jumonji H3K27 demethylase inhibitor modulates the proinflammatory macrophage response” (Nature, 2012).

Assays:
Macrophage [1] = assay: Antiinflammatory activity in human primary macrophages assessed as effect on LPS-induced BMP1 gene expression at 30 uM measured after 2 hrs by RT-PCR array (reference value: 3930 a.u.); assay type: functional
Macrophage [2] = assay: Antiinflammatory activity in human primary macrophages assessed as effect on LPS-induced IL10 gene expression at 30 uM measured after 2 hrs by RT-PCR array (reference value: 47621 a.u.); assay type: functional
Macrophage [3] = assay: Antiinflammatory activity in human primary macrophages assessed as effect on LPS-induced INHBA gene expression at 30 uM measured after 2 hrs by RT-PCR array (reference value: 785853 a.u.); assay type: functional
Macrophage [4] = assay: Antiinflammatory activity in human primary macrophages assessed as effect on LPS-induced GDF3 gene expression at 30 uM measured after 2 hrs by RT-PCR array (reference value: 134 a.u.); assay type: functional
Macrophage [5] = assay: Antiinflammatory activity in human primary macrophages assessed as effect on LPS-induced IL1F6 gene expression at 30 uM measured after 2 hrs by RT-PCR array (reference value: 145 a.u.); assay type: functional
Macrophage [6] = assay: Antiinflammatory activity in human primary macrophages assessed as effect on LPS-induced TNFSF11 gene expression at 30 uM measured after 2 hrs by RT-PCR array (reference value: 32 a.u.); assay type: functional
Macrophage [7] = assay: Antiinflammatory activity in human primary macrophages assessed as effect on LPS-induced IFNA2 gene expression at 30 uM measured after 2 hrs by RT-PCR array (reference value: 1099 a.u.); assay type: functional
Macrophage [8] = assay: Antiinflammatory activity in human primary macrophages assessed as effect on LPS-induced IL1F8 gene expression at 30 uM measured after 2 hrs by RT-PCR array (reference value: 1429 a.u.); assay type: functional
Macrophage [9] = assay: Antiinflammatory activity in human primary macrophages assessed as effect on LPS-induced TNFSF4 gene expression at 30 uM measured after 2 hrs by RT-PCR array (reference value: 880 a.u.); assay type: functional
Macrophage [10] = assay: Antiinflammatory activity in human primary macrophages assessed as effect on LPS-induced IFNA8 gene expression at 30 uM measured after 2 hrs by RT-PCR array (reference value: 425 a.u.); assay type: functional
Macrophage [11] = assay: Cytotoxicity against LPS-induced human primary macrophages assessed as effect on cell viability measured after 4 hrs by WST-1 assay; assay type: toxicity, cell-based
Macrophage [12] = assay: Antiinflammatory activity in human primary macrophages assessed as effect on LPS-induced GDF9 gene expression at 30 uM measured after 2 hrs by RT-PCR array (reference value: 113 a.u.); assay type: functional
Macrophage [13] = assay: Antiinflammatory activity in human primary macrophages assessed as effect on LPS-induced IL1F10 gene expression at 30 uM measured after 2 hrs by RT-PCR array (reference value: 125 a.u.); assay type: functional
Substance-P receptor = Substance-P receptor (Homo sapiens, UniProt P25103); assay: Antagonist activity at human NK-1 by intracellular Ca luminescence assay; assay type: functional, cell-based
[14] = target: Amine oxidase [flavin-containing] B (Homo sapiens, UniProt P27338); assay: Inhibition of human MAOB by FLINT assay
[15] = Drug uptake in human primary macrophage lysates at 30 uM measured after 1 hr by RP LC-MS/MS analysis; assay type: ADME, subcellular
[16] = target: Voltage-dependent L-type calcium channel subunit alpha-1C (Homo sapiens, UniProt Q13936); assay: Antagonist activity at human CaV1.2 (L-type) by intracellular Ca fluorescence assay; assay type: cell-based
Histone deacetylase 9 = Histone deacetylase 9 (Homo sapiens, UniProt Q9UKV0); assay: Inhibition of human HDAC9 by FLINT assay
[17] = target: Aryl hydrocarbon receptor (Homo sapiens, UniProt P35869); assay: Agonist activity at human AhR by TR-FRET assay
[18] = target: T1, Muscarinic acetylcholine receptor M1 (Homo sapiens, UniProt P11229); assay: Agonist activity at human CHRM1 by intracellular Ca fluorescence assay; assay type: functional, cell-based
T1 sequence (P11229 whole entry): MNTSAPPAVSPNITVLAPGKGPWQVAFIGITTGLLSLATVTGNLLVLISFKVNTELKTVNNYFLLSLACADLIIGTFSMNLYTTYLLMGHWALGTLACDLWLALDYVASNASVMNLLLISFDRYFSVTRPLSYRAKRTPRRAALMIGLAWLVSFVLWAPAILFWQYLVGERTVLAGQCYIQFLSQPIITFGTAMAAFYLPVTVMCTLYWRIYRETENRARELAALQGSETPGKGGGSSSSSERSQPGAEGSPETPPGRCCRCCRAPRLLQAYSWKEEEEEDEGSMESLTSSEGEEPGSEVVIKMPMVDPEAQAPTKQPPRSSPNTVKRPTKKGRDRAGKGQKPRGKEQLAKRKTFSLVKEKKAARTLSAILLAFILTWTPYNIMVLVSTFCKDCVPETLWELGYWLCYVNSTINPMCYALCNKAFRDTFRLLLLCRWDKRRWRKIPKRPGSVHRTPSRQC

Histamine H1 receptor = Histamine H1 receptor (Homo sapiens, UniProt P35367); assay: Antagonist activity at human HRH1 by intracellular Ca luminescence assay; assay type: functional, cell-based
Mu-type opioid receptor = Mu-type opioid receptor (Homo sapiens, UniProt P35372); assay: Agonist activity at human OPRM-1 by SPA; assay type: functional
[19] = target: T2, 5-hydroxytryptamine receptor 2C (Homo sapiens, UniProt P28335); assay: Antagonist activity at human 5-HT2C by intracellular Ca luminescence assay; assay type: functional, cell-based
T2 sequence (P28335 whole entry): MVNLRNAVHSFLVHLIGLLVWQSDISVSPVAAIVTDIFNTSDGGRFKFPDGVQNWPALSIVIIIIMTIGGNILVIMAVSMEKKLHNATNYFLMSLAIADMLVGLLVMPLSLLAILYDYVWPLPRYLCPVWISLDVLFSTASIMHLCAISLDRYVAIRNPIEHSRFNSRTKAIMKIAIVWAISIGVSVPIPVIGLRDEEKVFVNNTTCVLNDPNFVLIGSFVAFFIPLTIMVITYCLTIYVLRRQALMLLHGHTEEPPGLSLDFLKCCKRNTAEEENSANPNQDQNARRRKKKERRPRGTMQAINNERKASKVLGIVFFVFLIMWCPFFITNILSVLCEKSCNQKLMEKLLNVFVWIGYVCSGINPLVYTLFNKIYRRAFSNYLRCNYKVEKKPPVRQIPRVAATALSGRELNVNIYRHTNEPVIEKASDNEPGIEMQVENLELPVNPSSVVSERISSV

[20] = target: Kappa-type opioid receptor (Homo sapiens, UniProt P41145); assay: Agonist activity at human OPRK-1 by SPA; assay type: functional
Adenosine receptor A2a = Adenosine receptor A2a (Homo sapiens, UniProt P29274); assay: Agonist activity at human adenosine A2a by TR-FRET assay; assay type: functional
Histone deacetylase 3 = Histone deacetylase 3 (Homo sapiens, UniProt O15379); assay: Inhibition of human HDAC3 by FLINT assay
[21] = target: Prostaglandin G/H synthase 2 (Homo sapiens, UniProt P35354); assay: Inhibition of human COX-2 by FLINT assay
[22] = target: Amine oxidase [flavin-containing] A (Homo sapiens, UniProt P21397); assay: Inhibition of human MAOA by FLINT assay
[23] = target: Sodium-dependent serotonin transporter (Homo sapiens, UniProt P31645); assay: Binding affinity to human SERT by SPA
Sodium-dependent serotonin transporter, sequence (P31645 whole entry): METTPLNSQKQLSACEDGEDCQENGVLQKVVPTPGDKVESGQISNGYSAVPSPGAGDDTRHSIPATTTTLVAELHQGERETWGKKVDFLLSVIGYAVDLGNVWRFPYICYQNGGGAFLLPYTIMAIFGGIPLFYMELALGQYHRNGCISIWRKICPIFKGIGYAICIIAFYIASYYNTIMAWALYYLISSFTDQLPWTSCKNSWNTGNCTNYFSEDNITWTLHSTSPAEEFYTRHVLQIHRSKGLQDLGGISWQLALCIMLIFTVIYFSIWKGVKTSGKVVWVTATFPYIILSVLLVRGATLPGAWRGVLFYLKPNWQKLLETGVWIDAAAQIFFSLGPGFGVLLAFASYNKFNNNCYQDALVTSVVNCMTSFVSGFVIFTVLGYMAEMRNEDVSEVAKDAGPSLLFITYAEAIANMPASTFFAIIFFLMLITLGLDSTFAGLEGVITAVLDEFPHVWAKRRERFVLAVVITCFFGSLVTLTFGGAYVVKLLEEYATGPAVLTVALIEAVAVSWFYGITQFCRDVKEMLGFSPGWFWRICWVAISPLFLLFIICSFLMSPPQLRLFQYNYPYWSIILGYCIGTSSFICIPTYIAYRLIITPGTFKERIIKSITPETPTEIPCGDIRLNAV

Prostaglandin G/H synthase 2, sequence (P35354 whole entry): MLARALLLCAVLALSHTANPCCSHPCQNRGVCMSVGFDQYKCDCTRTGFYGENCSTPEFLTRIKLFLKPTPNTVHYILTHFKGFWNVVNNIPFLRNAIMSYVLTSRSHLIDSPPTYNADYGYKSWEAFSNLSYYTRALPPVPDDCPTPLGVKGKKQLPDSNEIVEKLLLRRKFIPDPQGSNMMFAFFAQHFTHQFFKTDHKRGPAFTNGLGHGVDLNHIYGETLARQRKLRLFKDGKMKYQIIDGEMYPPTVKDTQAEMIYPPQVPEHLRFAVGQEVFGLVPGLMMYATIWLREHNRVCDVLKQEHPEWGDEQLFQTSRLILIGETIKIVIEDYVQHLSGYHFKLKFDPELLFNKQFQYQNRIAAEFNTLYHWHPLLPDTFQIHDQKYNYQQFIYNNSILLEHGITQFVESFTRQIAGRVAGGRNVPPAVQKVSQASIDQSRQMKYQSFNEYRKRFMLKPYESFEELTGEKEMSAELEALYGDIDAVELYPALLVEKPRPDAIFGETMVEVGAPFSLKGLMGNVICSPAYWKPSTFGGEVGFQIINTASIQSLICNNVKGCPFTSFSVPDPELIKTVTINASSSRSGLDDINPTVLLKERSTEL
Histone deacetylase 9, sequence (Q9UKV0 whole entry): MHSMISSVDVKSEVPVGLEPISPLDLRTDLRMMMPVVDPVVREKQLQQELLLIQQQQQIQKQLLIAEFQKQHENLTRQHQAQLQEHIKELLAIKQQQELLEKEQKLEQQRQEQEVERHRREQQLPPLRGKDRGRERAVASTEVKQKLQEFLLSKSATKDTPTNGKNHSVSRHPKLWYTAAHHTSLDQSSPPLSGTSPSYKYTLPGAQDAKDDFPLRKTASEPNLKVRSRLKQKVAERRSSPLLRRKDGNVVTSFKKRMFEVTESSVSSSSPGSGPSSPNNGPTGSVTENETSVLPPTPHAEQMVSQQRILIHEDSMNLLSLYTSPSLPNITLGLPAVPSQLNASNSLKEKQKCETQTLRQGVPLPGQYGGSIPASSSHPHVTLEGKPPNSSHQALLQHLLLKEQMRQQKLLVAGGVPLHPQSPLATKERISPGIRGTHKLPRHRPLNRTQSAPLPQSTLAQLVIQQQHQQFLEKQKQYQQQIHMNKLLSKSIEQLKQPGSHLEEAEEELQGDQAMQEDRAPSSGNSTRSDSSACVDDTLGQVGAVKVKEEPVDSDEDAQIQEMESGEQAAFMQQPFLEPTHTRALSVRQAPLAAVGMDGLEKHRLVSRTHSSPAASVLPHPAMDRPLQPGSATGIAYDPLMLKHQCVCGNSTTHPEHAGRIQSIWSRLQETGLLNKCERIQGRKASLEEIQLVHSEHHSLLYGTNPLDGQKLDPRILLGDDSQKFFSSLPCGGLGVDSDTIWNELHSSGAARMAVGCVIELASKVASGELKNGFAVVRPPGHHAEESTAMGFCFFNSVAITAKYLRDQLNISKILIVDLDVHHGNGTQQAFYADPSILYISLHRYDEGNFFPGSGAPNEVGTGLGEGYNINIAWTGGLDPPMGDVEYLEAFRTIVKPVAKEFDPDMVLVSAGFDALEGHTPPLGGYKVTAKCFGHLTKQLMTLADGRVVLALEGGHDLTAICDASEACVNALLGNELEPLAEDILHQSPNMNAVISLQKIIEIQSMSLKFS
Aryl hydrocarbon receptor, sequence (P35869 whole entry): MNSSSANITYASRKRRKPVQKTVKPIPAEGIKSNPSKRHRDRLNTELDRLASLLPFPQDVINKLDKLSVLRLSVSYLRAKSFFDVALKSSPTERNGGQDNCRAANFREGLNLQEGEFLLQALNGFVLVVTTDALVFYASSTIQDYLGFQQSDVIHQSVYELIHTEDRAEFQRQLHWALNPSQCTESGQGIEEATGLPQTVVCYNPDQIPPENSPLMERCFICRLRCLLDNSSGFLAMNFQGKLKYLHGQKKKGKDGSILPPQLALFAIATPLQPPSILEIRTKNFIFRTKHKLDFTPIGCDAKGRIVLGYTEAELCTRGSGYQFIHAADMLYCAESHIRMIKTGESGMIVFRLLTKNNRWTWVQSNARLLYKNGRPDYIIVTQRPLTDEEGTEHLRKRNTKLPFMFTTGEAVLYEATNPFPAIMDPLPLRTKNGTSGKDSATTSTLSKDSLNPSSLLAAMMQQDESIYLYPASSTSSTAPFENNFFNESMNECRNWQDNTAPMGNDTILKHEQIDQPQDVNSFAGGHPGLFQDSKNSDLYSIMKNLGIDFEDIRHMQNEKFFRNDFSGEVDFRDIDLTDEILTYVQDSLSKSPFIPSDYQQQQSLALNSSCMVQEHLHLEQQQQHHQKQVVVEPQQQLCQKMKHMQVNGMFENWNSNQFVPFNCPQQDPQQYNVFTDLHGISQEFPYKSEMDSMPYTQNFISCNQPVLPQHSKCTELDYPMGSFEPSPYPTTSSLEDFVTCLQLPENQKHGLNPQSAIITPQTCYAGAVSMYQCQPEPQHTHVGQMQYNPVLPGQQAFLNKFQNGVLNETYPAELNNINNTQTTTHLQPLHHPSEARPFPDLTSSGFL
Histone deacetylase 3, sequence (O15379 whole entry): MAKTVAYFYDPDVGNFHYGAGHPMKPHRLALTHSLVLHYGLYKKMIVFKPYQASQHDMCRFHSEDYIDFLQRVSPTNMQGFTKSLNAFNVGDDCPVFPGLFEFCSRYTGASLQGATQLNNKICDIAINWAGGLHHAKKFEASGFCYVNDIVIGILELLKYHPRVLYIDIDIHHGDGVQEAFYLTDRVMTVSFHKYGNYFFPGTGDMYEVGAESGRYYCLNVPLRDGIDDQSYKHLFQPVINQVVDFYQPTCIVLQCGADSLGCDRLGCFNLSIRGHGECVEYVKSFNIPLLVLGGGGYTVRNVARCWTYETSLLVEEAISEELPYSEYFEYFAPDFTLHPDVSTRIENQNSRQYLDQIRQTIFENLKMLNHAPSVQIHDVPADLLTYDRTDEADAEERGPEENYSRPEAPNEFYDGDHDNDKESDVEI
Adenosine receptor A2a, sequence (P29274 whole entry): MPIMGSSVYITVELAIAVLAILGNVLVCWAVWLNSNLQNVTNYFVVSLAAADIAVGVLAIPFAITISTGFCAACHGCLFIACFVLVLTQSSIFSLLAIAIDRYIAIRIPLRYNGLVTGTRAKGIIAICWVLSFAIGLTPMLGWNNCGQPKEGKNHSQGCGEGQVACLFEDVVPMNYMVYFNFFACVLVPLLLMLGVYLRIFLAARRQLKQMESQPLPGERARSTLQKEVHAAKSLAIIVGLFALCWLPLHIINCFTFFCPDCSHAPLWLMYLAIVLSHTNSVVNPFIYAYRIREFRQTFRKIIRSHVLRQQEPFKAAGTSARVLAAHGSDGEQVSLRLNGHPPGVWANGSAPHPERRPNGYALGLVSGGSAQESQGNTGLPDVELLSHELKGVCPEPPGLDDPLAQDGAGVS
Amine oxidase [flavin-containing] A, sequence (P21397 whole entry): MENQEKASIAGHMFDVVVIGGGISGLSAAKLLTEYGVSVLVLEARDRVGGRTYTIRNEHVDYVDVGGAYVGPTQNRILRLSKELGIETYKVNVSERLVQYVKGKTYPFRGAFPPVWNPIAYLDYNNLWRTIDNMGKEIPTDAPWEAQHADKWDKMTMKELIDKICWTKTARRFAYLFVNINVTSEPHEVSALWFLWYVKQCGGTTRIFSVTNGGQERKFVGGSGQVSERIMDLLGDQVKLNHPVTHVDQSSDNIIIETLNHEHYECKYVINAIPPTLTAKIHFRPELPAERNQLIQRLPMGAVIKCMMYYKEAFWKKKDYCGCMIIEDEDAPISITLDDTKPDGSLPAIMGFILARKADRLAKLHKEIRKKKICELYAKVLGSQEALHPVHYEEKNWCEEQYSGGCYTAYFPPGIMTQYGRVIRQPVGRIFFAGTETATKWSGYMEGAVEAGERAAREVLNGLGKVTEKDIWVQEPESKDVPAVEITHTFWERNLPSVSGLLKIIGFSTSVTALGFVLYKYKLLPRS
Mu-type opioid receptor, sequence (P35372 whole entry): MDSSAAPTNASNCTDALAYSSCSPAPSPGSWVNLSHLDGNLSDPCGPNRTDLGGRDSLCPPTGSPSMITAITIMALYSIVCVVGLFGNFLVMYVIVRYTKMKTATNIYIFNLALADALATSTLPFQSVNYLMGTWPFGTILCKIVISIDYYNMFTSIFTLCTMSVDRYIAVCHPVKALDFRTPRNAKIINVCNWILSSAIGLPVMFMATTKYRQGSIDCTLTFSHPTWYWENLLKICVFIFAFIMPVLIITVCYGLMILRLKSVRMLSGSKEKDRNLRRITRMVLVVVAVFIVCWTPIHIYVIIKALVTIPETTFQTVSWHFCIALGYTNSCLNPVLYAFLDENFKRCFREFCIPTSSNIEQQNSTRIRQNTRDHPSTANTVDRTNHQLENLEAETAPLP

SMILES | Activity (Macrophage [1]) [a.u.] | Activity (Macrophage [2]) [a.u.] | Activity (Macrophage [3]) [a.u.] | Activity (Macrophage [4]) [a.u.] | Activity (Macrophage [5]) [a.u.] | Activity (Macrophage [6]) [a.u.] | Activity (Macrophage [7]) [a.u.] | Activity (Macrophage [8]) [a.u.] | Activity (Macrophage [9]) [a.u.] | Activity (Macrophage [10]) [a.u.] | Activity (Macrophage [11]) | Activity (Macrophage [12]) [a.u.] | Activity (Macrophage [13]) [a.u.] | XC50 (Substance-P receptor) [µM] | XC50 [14] [µM] | Drug uptake [15] [µM] | XC50 [16] [µM] | XC50 (Histone deacetylase 9) [µM] | XC50 [17] [µM] | XC50 [18] [µM] | also measured
CCOC(=O)CCNc1cc(N2CCc3ccccc3CC2)nc(-c2ccccn2)n1 | 2627 | 4765 | 157533 | 59 | 1 | 255 | 641 | 1157 | 1586 | 1012 | Non-Toxic | 15 | 11 | – | – | – | – | – | – | – | –
CCOC(=O)CCNc1cc(N2CCc3ccccc3CC2)nc(-c2cccnc2)n1 | 2746 | 31748 | 558833 | 151 | 121 | 27 | 65 | 2282 | 512 | 431 | Non-Toxic | 64 | 102 | – | – | – | – | – | – | – | –
O=C(O)CCNc1cc(N2CCc3ccccc3CC2)nc(-c2ccccn2)n1 | – | – | – | – | – | – | – | – | – | – | Non-Toxic | – | – | > 40 | 25 | 1.6 | > 16 | > 300 | > 100 | > 16 | XC50 (Histamine H1 receptor): > 40 µM; XC50 (Mu-type opioid receptor): > 100 µM; XC50 [19]: > 40 µM; XC50 [20]: > 100 µM; XC50 (Adenosine receptor A2a): > 32 µM; XC50 (Histone deacetylase 3): > 300 µM; XC50 [21]: > 63 µM; XC50 [22]: 50 µM; XC50 [23]: > 100 µM
O=C(O)CCNc1cc(N2CCc3ccccc3CC2)nc(-c2cccnc2)n1 | – | – | – | – | – | – | – | – | – | – | Non-Toxic | – | – | > 40 | 25 | 7.8 | > 16 | > 300 | 0.32 | > 16 | XC50 (Histamine H1 receptor): > 40 µM; XC50 (Mu-type opioid receptor): > 100 µM; XC50 [19]: > 40 µM; XC50 [20]: > 100 µM; XC50 (Adenosine receptor A2a): > 32 µM; XC50 (Histone deacetylase 3): > 300 µM; XC50 [21]: > 63 µM; XC50 [22]: > 100 µM; XC50 [23]: > 100 µM
